According to PubChem BioAssay AID179 (DTP/NCI, 2004):
Where “and” joins values, the source holds several entries; their conditions need not be identical. Equal values may be shown once. Calls of active or inactive are those of the source.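 How the source made its calls: active means compounds giving half or more protection of infected cells from virus-caused growth loss, again on retest; inactive means the rest.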 Where a SMILES comes first, the peptide text is derived from it. The star is where a group is joined. Boc = CC(C)(C)OC(=O)*

Test system: CEM cells HIV-1 protection, formazan growth assay
Assay: NCI AIDS Antiviral Assay
Details: for IC50: measured here: growth of uninfected CEM cells
How it was run: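 Soluble formazan readout of cell growth; CEM cells ± HIV-1; 5 drug concs. ≥50% protection → retest; ≥50% again = moderately active; reproducible 100% = confirmed active.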

Row | SMILES | EC50 [µM] | IC50 | outcome
1 | O=C(Nc1nc2ncn(CCNCCn3cnc4nc(NC(=O)c5ccccc5)[nH]c(=O)c43)c2c(=O)[nH]1)c1ccccc1 | > 23.4 | > 23.4 µM | 
2 | CC(C)(C)c1ccc(Oc2ccc(C#N)c(C#N)c2)c(C(C)(C)C)c1 | > 77.6 | > 77.6 µM | 
3 | C[C@@]12c3c4ccc(C=O)c3Oc3ccc(C=O)c(c31)Oc1c(C=O)ccc(c12)O4 | > 50.1 | > 50.1 µM | 
4 | BrC1(c2ccccc2)C[n+]2c(-c3ccccc3)cc(-c3ccccc3)cc2-c2ccccc21 (stereo not given) | > 200 | 0.741 µM | 
5 | CC(C)CCC[C@@H](C)C1CCC2C3CCC4C[C@@H](CCC=C(c5cc(F)c(O)c(C(=O)O)c5)c5cc(F)c(O)c(C(=O)O)c5)CC[C@]4(C)C3CC[C@@]21C (stereo not given in full) | 21.9 | > 200 µM | 
6 | O=[N+]([O-])c1ccc(NC(=S)Nc2ccccn2)cc1 | > 200 | 19.1 µM | 
7 | CCCNC(=O)N1CC(CN2CCN(c3ccccc3)CC2)O/C1=N/C(=O)Nc1ccccc1 (stereo not given) | > 200 | 77.6 µM | 
8 | Cn1c(=O)c2[nH]c(Nc3ccccc3)nc2n(C)c1=O | > 200 | 120 µM | 
9 | C=CCN1C2Cc3cc(OC)c(OC)cc3C1Cc1cc(OC)c(OC)cc12 | > 603 | 135 µM | 
10 | O=C(O)c1sc(=S)sc1C(=O)O |  |  | inactive
11 | CN=c1ccc2cc3ccc(NC)cc3oc-2c1 | > 200 | 37.2 µM | 
12 | CCN(CC)OC(=O)/C=C/c1ccccc1 |  |  | inactive
13 | Cc1ccccc1NC(=O)c1c(C)oc2c1C(=O)c1ccccc1C2=O | > 39.8 | > 39.8 µM | 
14 | CSc1nc(NC2OCC(O)C(O)C2O)cc(=O)[nH]1 (stereo not given) |  |  | inactive
15 | O=C1/C(=C/c2cccc(F)c2)CCc2ccccc21 | > 14.8 | > 14.8 µM | 
16 | C/C(=C\O[Si](C)(C)C)c1ccccc1 | > 200 | > 200 µM | 
17 | CC(=O)OC1C2C(=C(C)C(=O)O[C@@H]2c2ccoc2)[C@@]2(C)CC3CC(C)(C(=O)O3)C12 (stereo not given in full) | > 200 | > 200 µM | 
18 | CCOC(=O)c1c(N2CCCC2)[nH]c(=O)c(C(c2cccs2)c2c(O)c(C(=O)OCC)c(N3CCCC3)[nH]c2=O)c1O | > 200 | 141 µM | 
19 | COC(=O)C1=C(CS(=O)c2ccc([N+](=O)[O-])cc2[N+](=O)[O-])C2C=CC1C2 (stereo not given) |  |  | inactive
20 | O=[N+]([O-])c1ccc(C2N3CCCCC3[C@H]3CCCCN23)cc1 (stereo not given in full) | > 24 | > 24 µM | 
21 | C/C=C1/CN2CCc3c4n(c5ccccc35)[C@@H](CO)C1CC42 (stereo not given in full) | > 61.7 | > 61.7 µM | 

Row | SMILES | EC50 [µM] | IC50 | outcome
22 | COc1cc(OC)c2nc3ccccc3c(NCCCN(C)C)c2c1[N+](=O)[O-] | > 200 | 20 µM | 
23 | Nc1nc(Cl)cc(NCC2(CO)CC(Cc3ccccc3)C2)n1 (stereo not given) | > 20 | 0.174 µM | 
24 | COc1ccc(N2C(=O)C3c4[nH]c5ccc(OC)cc5c4C4CCC(C(C)(C)C)CC4C3C2=O)cc1 (stereo not given) | > 14.8 | > 14.8 µM | 
25 | COC1OC2COC(C)(C)OC2C(OC(C)=O)C1NC(=O)N(CCCl)N=O (stereo not given) | > 229 | > 229 µM | 
26 | O=C1C(=O)c2ccccc2C(O)=C1C(C1=C(O)c2ccccc2C(=O)C1=O)c1ccc(C(C2=C(O)c3ccccc3C(=O)C2=O)C2=C(O)c3ccccc3C(=O)C2=O)cc1 | > 200 | 9.55 µM | 
27 | CC(C)(C)C1=CC(=NC(=O)c2cc([N+](=O)[O-])cc([N+](=O)[O-])c2)C=C(C(C)(C)C)C1=O | > 6.03 | > 6.03 µM | 
28 | O=C1c2scc(-c3ccc(F)cc3)c2-n2cccc21 | > 200 | 30.2 µM | 
29 | CCCCCC=C(c1cc(Cl)c(OC)c(C(=O)N(C)C)c1)c1cc(Cl)c(OC)c(C(=O)N(C)C)c1 | > 36.3 | 21.4 µM | 
30 | CC(=O)N(C(=O)CC(=O)N1N=C(C)C(N=Nc2cccc([N+](=O)[O-])c2)C1=O)c1ccc(Cl)cc1 (stereo not given) | > 170 | 72.4 µM | 
31 | O=C(CC1=NC2NN(c3ccccc3)C(=O)C2=C1CC(=O)c1ccccc1)c1ccccc1 (stereo not given) | > 575 | 174 µM | 
32 | O=c1[nH]c2ccccc2c(O)c1CCCC1CCCCC1 | > 200 | 132 µM | 
33 | CCCOC(=O)c1ccc(N)cc1 | > 200 | > 200 µM | 
34 | CC(C)(C)OC(=O)NC(Cc1ccc(O)cc1)C(=O)NC(CCCCN)C(=O)O (stereo not drawn) (Boc-Tyr-Lys-OH; configuration not given here) | > 200 | 91.2 µM | 
35 | O=C(Nc1ccc(C2=NCCCN2)cc1)c1ccc(NC(=O)c2ccc(C3=NCCCN3)cc2)cc1 | > 200 | 67.6 µM | 
36 | O=C1c2ccccc2-c2nccc3ccnc1c23 |  |  | inactive
37 | CCOC(=O)CC(=O)ON(C)C(=O)Cc1ccccc1 | > 251 | > 251 µM | 
38 | [O]=[Sb]([OH])([OH])[c]1ccccc1 | > 200 | 77.6 µM and > 200 µM | 
39 | CCOC(=O)[C@H]1Nc2ccccc2C2c3ccccc3CC21 (stereo not given in full) | > 64.6 | > 64.6 µM | 
40 | CC1(C)OCN(c2ccc(S(N)(=O)=O)cc2)Cn2c1nc1ccccc12 | > 200 | 117 µM | 
41 | CC(=O)[C@H]1CCC2[C@@H]3CC=C4C[C@@H](OC5OC(COS(=O)(=O)O)C(O)C(O)C5O)CC[C@]4(C)C3CC[C@@]21C (stereo not given in full) | > 38 | > 38 µM | 
42 | CCOC(=O)C12CN(C34CC5CC(CC(C5)C3)C4)CC(C(=O)OCC)(C1=O)C(c1ccccc1)OC2c1ccccc1 (stereo not given) | > 30.9 | 13.5 µM | 

Row | SMILES | EC50 [µM] | IC50 | outcome
43 | CCN(CCCN(CC)C(=O)N[C@@H](Cc1ccccc1)C(=O)NC)C(=O)N[C@@H](Cc1ccccc1)C(=O)NC | > 200 | > 200 µM | 
44 | O=C(NCCCCCCNC(=O)n1cc(F)c(=O)[nH]c1=O)NCCCOCCOCCCNC(=O)C(O)C(O)C(O)C(O)CO (stereo not given) |  |  | inactive
45 | CCOC(=O)C(NC(C)=O)(Nc1ccc(F)cc1)C(F)(F)F (stereo not given) |  |  | inactive
46 | COC1/C=C/OC2(C)Oc3c(C)c(O)c4c(O)c(c(/C=N/N(C)c5nc6c(N)ncnc6n5C5OC(CO)C(O)C5O)c(O)c4c3C2=O)NC(=O)C(C)=C/C=C/C(C)C(O)C(C)C(O)C(C)C(OC(C)=O)C1C (stereo not given) | > 200 | 112 µM | 
47 | OCC(Cn1cncn1)(c1ccc(F)cc1F)n1cncn1 (stereo not given) | > 200 | > 200 µM | 
48 | CCC(C)C(NC(=O)C(CCC(=O)O)NC(=O)C(CCCCN)NC(=O)C(CO)NC(=O)C(CC(C)C)NC(=O)C(Cc1ccc(O)cc1)NC(=O)C(C)N)C(=O)NC(C)C(=O)NC(CO)C(=O)NC(CC(=O)O)C(=O)O (stereo not given) (H-AYLSKEIASD-OH; configuration not given here) | > 29.5 | > 29.5 µM | inactive
49 | C=CCC1(C(=O)OC)CCC/C(=N\O)C1 (stereo not given) | > 64.6 | > 64.6 µM | 
50 | CC(C)(C)OC(=O)NC1CCCC1=O (stereo not given) |  |  | inactive
51 | O=C1C=Cc2ccccc2/C1=C/c1[nH]c(=O)[nH]c1O | > 200 | 16.2 µM | 
52 | NC(=S)C(=S)N/C=C/c1nc2ccccc2[nH]c1=O | > 200 | 7.94 µM | 
53 | COc1ccc2c(c1)OC[C@@H]1c3cc(O)c(OCc4ccccc4)cc3O[C@H]21 | 9.12 | 24 µM | 
54 | CCC(=O)C(CCN1CCC2(CCCc3ccccc32)CC1)(c1ccccc1)c1ccccc1 | > 200 | 6.61 µM | 
55 | Cc1cccc(C(C)C)c1NC(=O)CC1Sc2ccccc2NC1=O (stereo not given) | > 20.4 |  | 
56 | CC1(Br)C(=O)NC(=O)N(C2C=CC(CO)O2)C1N=[N+]=[N-] (stereo not given) | 0.724 | 7.24 µM | 
57 | O=c1[nH]nc(Cc2ccccc2)n1C1CC1 | > 200 | > 200 µM | 
58 | Cc1ccc(Nc2nc(N)nc(N)c2N=O)cc1C | > 200 | > 200 µM | 
59 | CC1(C)CC2(C)CC1CC2NC(=O)CCN1CCOCC1 (stereo not given) | > 851 | 676 µM | 
60 | CCOC(=O)c1ccc(-c2cccs2)[nH]1 | > 200 | 38.9 µM | 
61 | Cc1cc(S(=O)(=O)NC(=NCCc2ccccc2)NN)c(S)cc1Cl | > 200 | 25.7 µM | 
62 | BrCCC[P+](c1ccccc1)(c1ccccc1)c1ccccc1 | > 20 | 0.912 µM | 
63 | O=c1ccn(-c2ccccn2)c(=O)n1-c1ccccn1 |  |  | inactive

Row | SMILES | EC50 [µM] | IC50 | outcome
64 | O=c1[nH]n(Cc2ccccn2)c2ccc([N+](=O)[O-])cc12 | > 200 | > 200 µM | 
65 | CC(=O)C(CN(Cc1ccccc1)Cc1ccccc1)C(c1ccccc1)c1c(O)c2ccccc2oc1=O (stereo not given) | > 170 | > 100 µM | 
66 | COc1nc2nc(C(O)C(O)CO)cnc2c(=O)n1C (stereo not given) | > 891 | > 891 µM | inactive
67 | O=C1CN(CCCN2CCOCC2)CC(=O)N2CCCCN12 | > 200 | > 200 µM | 
68 | COC(=O)c1ccccc1C1CN=NC12Cc1cc3c(cc1C2=O)CCC3 (stereo not given) |  |  | inactive
69 | C1=Nc2ccccc2/C1=C/c1c[nH]c2ccccc12 | 0.0631 | > 200 µM | 
70 | N#C/C(=C\c1cccc(C#N)c1)c1ccccc1 | > 31.6 | > 31.6 µM | 
71 | C/C(=N\Nc1ccc2ccccc2n1)c1ccccc1O | > 200 | 6.46 µM | 
72 | CCN(CC)c1ccc2cc(-c3csc(C)n3)c(=O)oc2c1 | > 200 | 10.2 µM | 
73 | [N-]=[N+]=CC(=O)OC1CCOCC1 | > 200 | > 200 µM | 
74 | Cc1ccc(C(=O)/C=C/c2cccc([N+](=O)[O-])c2)cc1 | > 37.2 | > 37.2 µM | 
75 | N#Cc1c(N)nc2c3c1NC(=O)C(C(N)=O)C3c1ccccc1O2 (stereo not given) | > 200 | > 200 µM | 
76 | C[C@]12Cc3conc3C(O)=C1CC[C@@H]1C2CC[C@@]2(C)C1CC[C@]2(C)O (stereo not given in full) |  |  | inactive
77 | Cc1c(Cl)cccc1NC(=O)C(=O)C1C(=O)NC(=O)NC1=O | > 398 | > 398 µM | 
78 | Cc1ccccc1[P+](Cc1ccccc1)(c1ccccc1)c1ccccc1 | > 200 | 1.26 µM | 
79 | CC(C)(C)n1c(=O)n(-c2ccccc2)n(C(C)(C)C)c1=O | > 200 | > 200 µM | 
80 | O=C(NCCCCNCCCNC(=O)C(F)(F)F)C(F)(F)F | > 200 | > 200 µM | 
81 | CC(C)(O)C(O)COc1c2c(cc3oc(=O)ccc13)OCO2 (stereo not given) | > 813 | 339 µM | 
82 | C=CCCC(C)N(C(=O)OC(C)(C)C)S(=O)(=O)c1ccc(C)cc1 (stereo not given) | > 14.8 | > 14.8 µM | 
83 | CN=c1ncc2nc(-c3ccccc3)c(-c3ccccc3)n(C)c-2n1 |  |  | inactive
